The nature of assay [1]: HEp-2 cell cytotoxicity, dose response, cytotoxicity control for RSV inhibitor project, HTS (AID 2410). To be noted: human respiratory syncytial virus. Format: functional.
The nature of assay [2]: inhibitors of SNCA 5'UTR-driven reporter translation, confirmation, H4 neuroglioma cells, luminescence (AID 1988). It is filed as functional, cell-based.
Assay [3] is described as follows: Luminescence Cell-Based Dose Response HTS to Identify Inhibitors of 5'UTR Stem-Loop Driven Prion Protein mRNA Translation in H4 Neuroglioblastoma Cells. [Related pubchem assays: 1827 (Project Summary), 1813 (Primary HTS)]. It is filed as functional.
A short description of assay [4]: inhibitors of firefly luciferase expression or activity, dose response, H4 neuroglioma cells, luminescence (AID 1990). It is filed as functional, cell-based.
Assay [5] has as its target T1, Heat shock factor protein 1 (Mus musculus, UniProt P38532).
T1 sequence (P38532 whole entry): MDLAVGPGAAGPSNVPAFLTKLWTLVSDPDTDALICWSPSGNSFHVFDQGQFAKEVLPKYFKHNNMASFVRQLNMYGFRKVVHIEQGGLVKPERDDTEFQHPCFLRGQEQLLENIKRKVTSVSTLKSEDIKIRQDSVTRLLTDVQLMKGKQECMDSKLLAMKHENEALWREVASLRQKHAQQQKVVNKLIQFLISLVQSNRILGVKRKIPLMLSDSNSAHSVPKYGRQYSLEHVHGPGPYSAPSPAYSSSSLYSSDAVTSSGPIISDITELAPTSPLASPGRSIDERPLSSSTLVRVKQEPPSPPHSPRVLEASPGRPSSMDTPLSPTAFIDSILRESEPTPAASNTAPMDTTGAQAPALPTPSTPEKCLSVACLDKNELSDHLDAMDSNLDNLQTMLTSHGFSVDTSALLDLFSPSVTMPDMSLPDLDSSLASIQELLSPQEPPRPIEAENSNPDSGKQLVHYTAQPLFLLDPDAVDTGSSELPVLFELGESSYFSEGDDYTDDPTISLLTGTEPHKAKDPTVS
Description: inhibition of MG132-induced HSE-luciferase signal, confirmation, cell-based, NIH3T3, luminescence, dose retest (AID 2382).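 Also: NIH3T3 fibroblasts with HSF1-driven luciferase reporter stressed by proteasome inhibitor MG132; luminescence from HSF1-driven luciferase expression after 8 hours of MG132 stress.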 Format: functional.

Another assay has as its system INS1. Description: beta cell apoptosis inhibitors, cytokine rescue, dose response, luminescence, retest (AID 449756).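 Also: cell death triggered by IL-1 beta plus TNF-alpha plus IFN-gamma mixture; protective hits raise ATP signal compared with cytokine alone wells.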 It is filed as functional, cell-based. To be noted: Rattus norvegicus.
The subject of the next assay is Streptococcus. Put plainly: Group A Streptococcus viability loss, dose response, counter-screen for streptokinase expression inhibitor project, luminescence, BacTiterGlo (AID 1915).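 Also: potency for reduction of bacterial viability or growth.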 Format: functional, organism-based. On the technique in general: Counterscreens check selectivity or assay interference.
The next assay deals with T2, Streptokinase A (Streptococcus pyogenes serotype M1, UniProt P10520).
T2 sequence (P10520 whole entry): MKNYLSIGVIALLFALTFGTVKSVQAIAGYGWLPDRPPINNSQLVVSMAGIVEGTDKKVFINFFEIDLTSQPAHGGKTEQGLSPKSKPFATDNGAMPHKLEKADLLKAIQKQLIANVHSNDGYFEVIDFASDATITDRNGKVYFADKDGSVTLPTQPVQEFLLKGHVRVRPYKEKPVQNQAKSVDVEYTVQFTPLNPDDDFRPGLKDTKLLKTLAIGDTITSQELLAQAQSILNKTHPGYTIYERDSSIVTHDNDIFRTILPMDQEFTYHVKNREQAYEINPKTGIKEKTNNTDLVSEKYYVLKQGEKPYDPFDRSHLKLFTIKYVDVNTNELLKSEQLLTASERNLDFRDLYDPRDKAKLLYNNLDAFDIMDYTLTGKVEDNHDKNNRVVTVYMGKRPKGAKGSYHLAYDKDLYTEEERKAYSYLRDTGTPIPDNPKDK
Description: S. pyogenes streptokinase expression inhibitors, potency, dose response, plasminogen activation absorbance, OD405 (AID 1914).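 Also: secreted streptokinase activity via plasminogen activation per viability signal from cell pellet.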 It is filed as functional, Streptococcus pyogenes M1 GAS.

In assay [6] the test system is Streptococcus sp. 'group A'. Put plainly: growth inhibition of control SK(-) GAS strain, dose response, counter-screen for streptokinase expression inhibitor project, luminescence, kanamycin, BacTiterGlo, confirmation (AID 1900). Format: functional, organism-based.
Assay [7] in a line: inhibitors of intracellular T. cruzi replication, confirmation, NIH3T3 host cells, beta-gal luminescence (AID 2044).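 Also: intracellular parasites grown in NIH/3T3 mouse fibroblasts as host cells; luminescent beta-galactosidase reporter signal from transgenic T. cruzi replicating inside host cells; inhibitors lower the luminescence signal.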 Format: functional, cell-based.
The nature of assay [8]: cytotoxicity toward NIH3T3 fibroblasts, dose response, counter-screen, cell-based, ATP luminescence, mouse fibroblasts (AID 2010).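 Also: cells exposed to compound for about 90 hours before reading.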 It is filed as functional.

The source made the active and inactive calls. Rule as the data show it, for most assays here: actives have a measured EC50 and inactives only a lower limit.

What is called CC50 is the concentration giving 50% cytotoxicity. As usually defined, the EC50 is the concentration giving half of the maximal effect. The term AC50 denotes the midpoint of the concentration-response curve, whichever way the signal moves.

In the case of `COc1ccc(CCNC(=O)c2ccc3c(c2)N(Cc2ccc(F)cc2)CCS3)cc1OC`, the CC50 in assay [1] is 25.7 µM (active). As for `CCOC(=O)c1ccc(NC(=O)c2cc3c(C)nn(-c4ccccc4Cl)c3s2)s1`, the EC50 in [2] was > 120 µM (not active); in [3], > 120 µM (not active); in [4] it was 15.3 µM (active).

For `Cc1nn(Cc2ccc(F)cc2)c(C)c1NC(=O)c1cc(-c2ccc3c(c2)OCO3)on1`, the results for the EC50 in assay [2], in assay [3] and in [4] were > 120 µM (not active), > 120 µM (not active) and 15.7 µM (active), respectively. As to `CC1(OC(=O)CCc2ccccc2)C(=O)C=C2C=C(c3ccc(C#N)cc3)N(CCc3ccccn3)C=C2C1=O` (stereo not drawn), the concentration for a half-maximal effect (EC50) in [5] was > 195 µM (not active). `COc1cc(OC)c2c3c(c(C4CCCCC4)nc2c1)CCC3`: the CC50 in [1] is 30.1 µM (active). Regarding `CCCCCCSc1cc(-c2nc3ccc(C)cn3c2NCc2ccccc2)ccc1OC`, the AC50 in the assay on INS1 is 6.87 µM (active). Take `N#CCc1c(C#N)c(N)nc(N2CCCC2)c1C#N`: in assay [1], the CC50 is 19.6 µM (active). Turning to `CCOC(=O)c1c(C)[nH]c(C)c1S(=O)(=O)NCCc1cccs1`, the EC50 in assay [5] is given as > 195 µM (not active). Regarding `N#Cc1c(NC(=S)NC(=O)C2CCCC2)sc2c1CCCCC2`, the 50% effective concentration (EC50) was 27.1 µM (active) with Streptococcus, 2.9 µM (active) on Streptokinase A and 8.59 µM (active) in [6]. In the case of `Cc1nc(N)sc1-c1csc(Nc2ccc(Cl)cn2)n1`, the CC50 in assay [1] is 7.95 µM (active).

In the case of `CCNC(=O)Nc1cc(S(=O)(=O)Nc2ccc(OC)cc2)ccc1N1CCOCC1`, the concentration at half-maximal activity (AC50) in the assay on INS1 is 3.3 µM (active). For the compound `COc1ccccc1CNC(=O)c1ccc2[nH]c3nc4ccccc4c-3nc2c1`, the CC50 in assay [1] was > 50 µM (active). `CCc1ccccc1Nc1nc2ccccc2n1CC`: the EC50 was 23 µM (active) in assay [2], > 120 µM (not active) in assay [3] and > 120 µM (not active) in assay [4]. For `C[C@@H]1CN([C@H](C)CO)C(=O)c2cc(NC(=O)Nc3ccc(C(F)(F)F)cc3)ccc2O[C@H]1CN(C)S(=O)(=O)c1cccs1`, the half-maximal activity concentration (AC50) with INS1 was 27 µM (active). `O=C(c1ccccc1)c1nc2ccccc2n(CCCn2c(=O)c(C(=O)c3ccccc3)nc3ccccc32)c1=O`: the EC50 in assay [2] was > 120 µM (not active); in assay [3], 34.5 µM (active); in assay [4], 33.3 µM (active). `COc1cnc(-c2ccccn2)nc1Oc1ccccc1`: the half-maximal effective concentration (EC50) (with Streptococcus; on Streptokinase A; in assay [6]) was > 150 µM (not active) throughout.

With `COc1ccc(CNc2nc3c(c(=O)[nH]c(=O)n3C)n2Cc2ccccc2C)cc1`, the EC50 in [5] was > 195 µM (not active). Regarding `O=C(c1ccco1)N1N=C(c2ccc(Br)cc2)CC1c1ccco1` (stereo not drawn), the AC50 with INS1 is 19.8 µM (active). Turning to `CCOC(=O)c1c(C)n(C)c2ccc(OC)c(NC(=O)CN3CCSCC3)c12`, the EC50 in assay [5] is reported as > 195 µM (not active). Consider `CCCC(=O)Nc1nc(C)c(-c2csc(Nc3ccc(Cl)cc3)n2)s1`, for which the 50% cytotoxic concentration (CC50) in assay [1] was 7.41 µM (active). On to `O=C1N[C@@H](Cc2ccccc2)C(=O)N2[C@@H]3N(S(=O)(=O)c4ccc(F)cc4)c4ccccc4[C@]3(Br)C[C@@H]12`, for which the cytotoxic concentration (CC50) in assay [1] is > 50 µM (active). As for `Cc1cc(C)n(CC(C)NC(=O)c2cc(COc3ccc(F)c(F)c3)on2)n1` (stereo not drawn), the EC50 in [5] is > 195 µM (not active).

`CCOC(=O)C1CCN(C(=O)CCc2c(C)nc3cc(-c4ccccc4)nn3c2C)CC1`: the figures for the concentration giving a half-maximal response (EC50) in [3] and in assay [4] were 27.1 µM (active) and 18.2 µM (active), respectively. In the case of `c1ccc(OCc2nc3c4c(ncn3n2)-c2ccccc2CC42CCCC2)cc1`, the EC50 with Streptococcus was > 150 µM (not active); on Streptokinase A it was 22 µM (active); in assay [6] it was 114 µM (active). `C#CCN(C#N)c1nc(NCC)nc(NC(C)C)n1`: the 50% effective concentration (EC50) in assay [2] is 16 µM (active); in [3], > 120 µM (not active); in assay [4] it was 28.9 µM (active). Take `COc1ccc(-n2c(C)cc(-c3csc(NC(=O)c4ccc(S(=O)(=O)N(C)C)cc4)n3)c2C)cc1`: in assay [5], the 50% effective concentration (EC50) is > 195 µM (not active). Take `COc1cc(NS(=O)(=O)c2csc(C(N)=O)c2)cc(OC)c1`: in assay [5], the EC50 was > 195 µM (not active). As for `CCC1(C)Cc2c(sc3nc(SC)nc(N)c23)CO1` (stereo not drawn), the 50% cytotoxic concentration (CC50) in assay [1] is 31 µM (active).

On to `COc1ccc(CCNC(=O)Cc2cccs2)cc1`, for which the EC50 in assay [5] was > 195 µM (not active). Regarding `Cc1nnc(C)c2c(C)n(C(c3ccccc3)c3ccccc3)c(C)c12`, the EC50 is 1.46 µM (active) in [7] and > 60 µM (not active) in assay [8]. Moreover, the CC50 in assay [1] is 18.3 µM (active). Take `COc1ccc(C2C(C#N)=C(N)Oc3cc4c(cc32)OCO4)cc1` (stereo not drawn): the EC50 in [2] is 10.9 µM (active); in assay [3], 74 µM (active); in [4] it was > 120 µM (not active). Take `Cc1ccc2c(c1)c(-c1ccccc1)nc1nnnn12`: the EC50 was 120 µM (active) in assay [2], > 120 µM (not active) in assay [3] and 17.5 µM (active) in [4].

For the compound `CCOc1ccccc1CNC(=O)c1nn(C)c2c1CS(=O)(=O)c1ccccc1-2`, the EC50 in [2], in [3] and in assay [4] was > 120 µM (not active) in each case.

`COc1cccc(CC(=O)N[C@@H](CCSC)c2nc3ccccc3[nH]2)c1`: in assay [5], the concentration for a half-maximal effect (EC50) is given as > 195 µM (not active).

Regarding `COc1cccc(C2[C@H](C)C3(CCN2C)OCCO3)c1` (stereo partly drawn), the 50% effective concentration (EC50) in [2], in assay [3] and in [4] was > 120 µM (not active) throughout. As for `COc1ccc(-c2noc(CCCC(=O)NC3CCCC3)n2)cc1`, the 50% effective concentration (EC50) was 13.3 µM (active) in assay [2], 14.1 µM (active) in assay [3] and 11 µM (active) in assay [4]. Take `COc1ccc2oc(C(=O)OCC(=O)N(C)CC(=O)Nc3ccc(C)cc3)c(C)c2c1`: the EC50 in assay [5] is on record as > 195 µM (not active).

As for `C/C=C/c1ccc(OCC(=O)Nc2ccc(OC)c(OC)c2)c(OC)c1`, the 50% effective concentration (EC50) in [5] is given as > 195 µM (not active). Same read-out and setting: next, `CC(C)(C)n1nnnc1CN1CCC(NC(=O)NC2CCCCC2)CC1`: 33.9 µM (active). As to `CCOc1ccc2c3c(c(=O)oc2c1OCC)CCCC3`, in assay [1], the CC50 is 44 µM (active). On the same count and under the same terms, to `COc1cccc(OC)c1CC1SC(=O)NC1=O` (stereo not drawn) belongs 40.2 µM (active); to `Cc1ccc(C)c(C(=O)OCC(=O)Nc2cccc(S(=O)(=O)NC3=NCCCCC3)c2)c1`, 20.6 µM (active).

`Cc1cc(C(=O)COC(=O)c2ccco2)c(C)n1Cc1ccco1`: the EC50 in assay [5] was < 0.16 µM (active). `CCC(C)(C)c1ccc(Oc2ccc(NC(=O)COC(=O)C3=COCCO3)cc2)cc1`: the results for the EC50 in assay [2], in assay [3] and in assay [4] were 8.92 µM (active), 10.1 µM (active) and 6.08 µM (active), respectively.

Turning to `Cc1cc(C)c2c(C)n[nH]c2n1`, the AC50 with INS1 was > 260 µM (inactive).

Take `Cc1ccc(C)c2sc(N3CCN(C(=O)c4ccc([N+](=O)[O-])o4)CC3)nc12`: the EC50 with Streptococcus is 9.98 µM (active); at Streptokinase A, 2.59 µM (active); in assay [6], 2.67 µM (active). In [1], the CC50 is 16.9 µM (active). Consider `CO[C@@]1(NC(=O)Cc2cccs2)C(=O)N2C(C(=O)O)=C(COC(N)=O)CS[C@@H]21` [CEFOXITIN SODIUM], for which the values for the EC50 (in the assay on Streptococcus; at Streptokinase A; in assay [6]) were 16.2 µM (active), > 150 µM (not active) and 5.58 µM (active), respectively.

(Values after ChEMBL document CHEMBL1201862, “PubChem BioAssay data set” (2004).)
